From patent publication US20110039783A1, “PEPTIDE HAVING HYPOTENSIVE ACTIVITY” (DAIICHI SANKYO COMPANY LIMITED, priority 2007, published 2011)
“Also recorded” adds a separate entry of the source.

Assays:
[1] = system: blood pressure of anesthetized Sprague-Dawley IGS male rats; assay: Hypotensive activity in anesthetized rats, invasive blood pressure measurement after intravenous administration; assay type: in vivo, rat; details: for Hypotensive activity (dose/rat) 10 nmol / Hypotensive activity (dose/rat) 30 nmol: intravenous; for Hypotensive activity (dose/rat) 10 nmol: 10 nmol/rat; for Hypotensive activity (dose/rat) 30 nmol: 30 nmol/rat
[2] = system: blood pressure of awake C57BL/6 mice; assay: Hypotensive activity on awake mice (tail cuff, systolic blood pressure); assay type: in vivo, mouse; details: caudal vein, 0.1 and 1 mg/kg, FIG. 2, listed as HC021-007
Description: A C57BL/6 mice with a body weight of 30 to 40 g (Charles River Laboratories Japan, Inc.) were each placed in a retaining appliance of a non-preheating, non-invasive blood pressure monitor for mice and rats (MODEL MK-2000; Muromachi Kikai Co., Ltd.), and a cuff-pulse sensor was then attached to the root of the tail. After confirming that the blood pressure of each mouse had been stable, the mouse was subjected to the experiment.
A peptide solution was prepared by diluting each peptide with a normal saline, depending on the dose. In the case of the dose of 0.1 mg/kg, a 0.02 mg/mL peptide solution was prepared. In the case of the dose of 1 mg/kg, a 0.2 mg/mL peptide solution was prepared. The amount of the solution to be administered was set at 5 mL/kg. As a positive control, a human atrial natriuretic peptide (hANP) was used. As a negative control, a normal saline was used. Each peptide was administered via the caudal vein using a syringe with a 29G needle. Three and ten minutes after the administration, the systolic blood pressure and the heart rate were measured.

[3] = system: blood pressure of awake Sprague-Dawley IGS male rats; assay: Hypotensive activity on awake rats; assay type: in vivo, rat; parameters: key to Hypotensive activity (dose/rat) 10 nmol / Hypotensive activity (dose/rat) 30 nmol: Extremely strong activity (+++): A decrease in systolic blood pressure is 30 mmHg or more, and the time required for recovery is 5 minutes or more.; Strong activity (++): A decrease in systolic blood pressure is 20 mmHg or more and less than 30 mmHg, or the time required for recovery is less than 5 minutes.; Activity observed (+): A decrease in systolic blood pressure is less than 20 mmHg.; Activity not observed (−)
Description: 50 mg/kg pentobarbital sodium was intraperitoneally administered to 8- to 10-week-old Sprague-Dawley IGS male rats (Charles River Laboratories Japan, Inc.) for anesthesia. Thereafter, a jugular vein cannula (Silascon 0.5-1.0) was inserted into each rat for use in peptide administration, and a carotid artery cannula (PE50) was inserted into each rat for use in the measurement of blood pressure. At least 3 hours after the surgery, it was confirmed that the rats were awoken from the anesthesia based on general conditions such as the posture, respiration, and the like of the rats. Thereafter, the rats were subjected to the experiment.
The carotid artery cannula was connected with a pressure transducer (PE23XL; manufactured by Nihon Kohden Corporation), and an apparatus formed by incorporating a blood pressure measurement unit (AP-641G; manufactured by Nihon Kohden Corporation) and an instantaneous heart rate measurement unit (AT-601G; manufactured by Nihon Kohden Corporation) into a multi-purpose preamplifier (RP-6004; manufactured by Nihon Kohden Corporation) was used to record the blood pressure and heart rate of each rat. The blood pressure was calibrated using a mercury manometer included in a stand-type electromanometer (MP-25S; manufactured by Nihon Kohden Corporation). The recording paper was adjusted, such that 20 mm or 40 mm on the recording paper corresponded to 100 mmHg. A solvent in which each peptide had been dissolved was used as a negative control in blood pressure fluctuation.
Each peptide was dissolved in a concentration of 1 mM in a 5% mannitol solution to prepare a peptide solution. Thereafter, depending on dose, it was diluted with a 5% mannitol solution. In the case of the dose of 10 nmol/rat, a 1 mM peptide solution was 30 times diluted, and 300 μL of the diluted solution was administered. In the case of the dose of 30 nmol/rat, a 1 mM peptide solution was 10 times diluted, and 300 μl of the diluted solution was administered. In the case of the dose of 100 nmol/rat, a 1 mM peptide solution was 3 times diluted, and 300 μL of the diluted solution was administered. Each peptide was intravenously administered via the jugular vein cannula, and the systolic blood pressure, diastolic blood pressure, and heart rate were then measured.
The definition of the strength of hypotensive activity was the same as that of Example 3.

With “ATVRNEDKWKPLNNPRNRDLFFRRLQAYFK-amide (C-terminal amide) [Compound 5]” the “Hypotensive activity (dose/rat) 10 nmol” value ([1]; Table 1, anesthetized rats) was “++ (Strong activity (++): A decrease in systolic blood pressure is 20 mmHg or more and less than 30 mmHg, or the time required for recovery is less than 5 minutes.)”, the “Hypotensive activity (dose/rat) 30 nmol” value ([1]; Table 1, anesthetized rats) was “+++ (Extremely strong activity (+++): A decrease in systolic blood pressure is 30 mmHg or more, and the time required for recovery is 5 minutes or more.)” and the “Hypotensive activity (dose/rat) 10 nmol” value ([1]; Table 2, anesthetized rats) was “++ (Strong activity (++): A decrease in systolic blood pressure is 20 mmHg or more and less than 30 mmHg, or the time required for recovery is less than 5 minutes.)”. The “Hypotensive activity (dose/rat) 30 nmol” value ([1]; Table 2, anesthetized rats) was “+++ (Extremely strong activity (+++): A decrease in systolic blood pressure is 30 mmHg or more, and the time required for recovery is 5 minutes or more.)”, the “Hypotensive activity (dose/rat) 10 nmol” value ([1]; Table 3, anesthetized rats) was “++ (Strong activity (++): A decrease in systolic blood pressure is 20 mmHg or more and less than 30 mmHg, or the time required for recovery is less than 5 minutes.)” and the “Hypotensive activity (dose/rat) 30 nmol” value ([1]; Table 3, anesthetized rats) was “+++ (Extremely strong activity (+++): A decrease in systolic blood pressure is 30 mmHg or more, and the time required for recovery is 5 minutes or more.)”. For the same substance, the “dose dependence of hypotensive activity” value ([1]; anesthetized rats, 10, 30, 100 nmol/rat) was “enhanced their hypotensive activity in a dose-dependent manner”, the “hypotensive activity (in words)” value ([1]; anesthetized rats, Table 1 and FIG. 1, 10 or 30 nmol/rat, listed as HC021-007) was “observed to have a hypotensive activity; also recorded: act to lower the blood pressure of rats” and the “hypotensive activity (in words), change in systolic blood pressure” value [2] was “exhibited a hypotensive activity even on the awake mice; also recorded: lower the blood pressure of awake mice”. The “hypotensive activity (in words)” value [3] was “observed to have a hypotensive activity even on the awake rats”, the “Hypotensive activity (dose/rat) 10 nmol” value ([3]; Table 4, intravenous, 10 nmol/rat) was “−” and the “Hypotensive activity (dose/rat) 30 nmol” value ([3]; Table 4, intravenous, 30 nmol/rat) was “++ (Strong activity (++): A decrease in systolic blood pressure is 20 mmHg or more and less than 30 mmHg, or the time required for recovery is less than 5 minutes.)”. For the same substance, the “Hypotensive activity (dose/rat) 100 nmol” value ([3]; Table 4, intravenous, 100 nmol/rat) was “+++ (Extremely strong activity (+++): A decrease in systolic blood pressure is 30 mmHg or more, and the time required for recovery is 5 minutes or more.)”.
